# Assay results: patent US10752613B2, “Compounds and their use for reducing uric acid levels” (Acquist LLC, priority 2016, dated 2020)
# “Also recorded” adds a separate entry of the source.
# Molecular target: xanthine oxidase (Homo sapiens (Human), UniProt P47989)
# Assay: Fluorescence-based xanthine oxidase activity assay
# Format: biochemical
# Settings: for IC50: fluorescence-based assay, triplicate, 10 concentrations; for Xanthine oxidase inhibition compared with allopurinol: comparison in words
# xanthine oxidase, sequence (P47989 whole entry, species assumed): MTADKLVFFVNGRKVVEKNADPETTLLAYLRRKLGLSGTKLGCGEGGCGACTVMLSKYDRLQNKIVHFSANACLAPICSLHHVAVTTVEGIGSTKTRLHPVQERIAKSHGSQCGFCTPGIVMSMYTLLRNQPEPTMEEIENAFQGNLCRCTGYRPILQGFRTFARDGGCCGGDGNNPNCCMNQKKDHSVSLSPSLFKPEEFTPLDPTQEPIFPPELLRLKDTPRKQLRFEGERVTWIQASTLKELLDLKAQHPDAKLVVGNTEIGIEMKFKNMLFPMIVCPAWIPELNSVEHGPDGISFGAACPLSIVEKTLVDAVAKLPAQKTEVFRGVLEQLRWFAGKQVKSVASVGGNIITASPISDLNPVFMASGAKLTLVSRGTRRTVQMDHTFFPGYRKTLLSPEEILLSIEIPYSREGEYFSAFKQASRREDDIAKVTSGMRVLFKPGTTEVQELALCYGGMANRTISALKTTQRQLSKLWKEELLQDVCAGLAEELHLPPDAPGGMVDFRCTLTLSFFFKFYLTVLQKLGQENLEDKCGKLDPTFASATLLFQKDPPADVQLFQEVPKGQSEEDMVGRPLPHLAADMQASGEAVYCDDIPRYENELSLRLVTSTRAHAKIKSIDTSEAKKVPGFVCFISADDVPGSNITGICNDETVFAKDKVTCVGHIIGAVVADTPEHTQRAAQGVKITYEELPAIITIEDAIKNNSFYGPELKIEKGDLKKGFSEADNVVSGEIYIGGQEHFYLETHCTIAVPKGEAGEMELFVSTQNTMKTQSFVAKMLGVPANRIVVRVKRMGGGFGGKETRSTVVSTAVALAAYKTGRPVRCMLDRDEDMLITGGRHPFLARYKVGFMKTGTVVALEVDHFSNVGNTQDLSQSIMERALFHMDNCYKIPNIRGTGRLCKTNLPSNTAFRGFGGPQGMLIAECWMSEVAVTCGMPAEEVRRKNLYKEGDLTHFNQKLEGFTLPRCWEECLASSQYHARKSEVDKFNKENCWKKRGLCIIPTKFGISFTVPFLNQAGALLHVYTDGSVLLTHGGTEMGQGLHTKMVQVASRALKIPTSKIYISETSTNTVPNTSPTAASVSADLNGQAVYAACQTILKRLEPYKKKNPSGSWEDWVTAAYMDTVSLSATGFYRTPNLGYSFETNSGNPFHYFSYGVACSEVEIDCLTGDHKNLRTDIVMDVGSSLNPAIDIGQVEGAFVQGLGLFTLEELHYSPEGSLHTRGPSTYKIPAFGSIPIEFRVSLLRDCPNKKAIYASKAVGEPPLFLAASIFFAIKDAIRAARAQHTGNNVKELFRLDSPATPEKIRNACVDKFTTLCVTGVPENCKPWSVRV
compound,measurement,value
"O=C(Nc1cccc(-c2cn[nH]n2)c1)c1c(O)[nH]c(=O)[nH]c1=O [Formula (Ia), N-(3-(1H-1,2,3-triazol-5-yl)phenyl)-6-hydroxy-2,4-dioxo-1,2,3,4-tetrahydropyrimidine-5-carboxamide]",IC50,6.5 µM
"O=C(Nc1ccc(-c2nn[nH]c2-c2ccccc2)cc1)c1c(O)[nH]c(=O)[nH]c1=O [Formula (Ic), 6-hydroxy-2,4-dioxo-N-(4-(4-phenyl-1H-1,2,3-triazol-5-yl)phenyl)-1,2,3,4-tetrahydropyrimidine-5-carboxamide]",IC50,12.2 µM
"O=C(Nc1ccc(-c2nc(C(F)(F)F)n[nH]2)cc1)c1c(O)[nH]c(=O)[nH]c1=O [Formula (Ie), 6-hydroxy-2,4-dioxo-N-(4-(3-(trifluoromethyl)-1H-1,2,4-triazol-5-yl)phenyl)-1,2,3,4-tetrahydropyrimidine-5-carboxamide]",IC50,14.5 µM
"O=C(Nc1ccc(-c2cn[nH]c2)cc1)c1c(O)[nH]c(=O)[nH]c1=O [Formula (If), N-(4-(1H-pyrazol-4-yl)phenyl)-6-hydroxy-2,4-dioxo-1,2,3,4-tetrahydropyrimidine-5-carboxamide]",IC50,70.1 µM
"O=C(Nc1ccc(-c2c[nH]nn2)c(C(F)(F)F)c1)c1c(O)[nH]c(=O)[nH]c1=O [Formula (Ig), N-(4-(1H-1,2,3-triazol-5-yl)-3-(trifluoromethyl)phenyl)-6-hydroxy-2,4-dioxo-1,2,3,4-tetrahydropyrimidine-5-carboxamide]",Xanthine oxidase inhibition compared with allopurinol,comparable to allopurinol
same,IC50,2.2 µM
"O=C(Nc1ccc(-c2c[nH]nn2)cc1C(F)(F)F)c1c(O)[nH]c(=O)[nH]c1=O [Formula (Ih), N-(4-(1H-1,2,3-triazol-5-yl)-2-(trifluoromethyl)phenyl)-6-hydroxy-2,4-dioxo-1,2,3,4-tetrahydropyrimidine-5-carboxamide]",Xanthine oxidase inhibition compared with allopurinol,more potent inhibitors of xanthine oxidase than allopurinol; also recorded: comparable to allopurinol
same,IC50,1.2 µM
"O=C(Nc1ccc(-c2cc(O)n[nH]2)cc1)c1c(O)[nH]c(=O)[nH]c1=O [Formula (Ii), 6-hydroxy-N-(4-(3-hydroxy-1H-pyrazol-5-yl)phenyl)-2,4-dioxo-1,2,3,4-tetrahydropyrimidine-5-carboxamide]",Xanthine oxidase inhibition compared with allopurinol,more potent inhibitors of xanthine oxidase than allopurinol
same,IC50,1.3 µM
"O=C(Nc1ccc(-c2cn[nH]c2C(F)(F)F)cc1)c1c(O)[nH]c(=O)[nH]c1=O [Formula (Ij), 6-hydroxy-2,4-dioxo-N-(4-(5-(trifluoromethyl)-1H-pyrazol-4-yl)phenyl)-1,2,3,4-tetrahydropyrimidine-5-carboxamide]",IC50,16.3 µM
"O=C(Nc1ccc(-n2cc(C(F)(F)F)cn2)cc1)c1c(O)[nH]c(=O)[nH]c1=O [Formula (Ik), 6-hydroxy-2,4-dioxo-N-(4-(4-(trifluoromethyl)-1H-pyrazol-1-yl)phenyl)-1,2,3,4-tetrahydropyrimidine-5-carboxamide]",IC50,68 µM
"O=C(Nc1ccc(-c2cc(C(F)(F)F)n[nH]2)cc1)c1c(O)[nH]c(=O)[nH]c1=O [Formula (Il), 6-hydroxy-2,4-dioxo-N-(4-(3-(trifluoromethyl)-1H-pyrazol-5-yl)phenyl)-1,2,3,4-tetrahydropyrimidine-5-carboxamide]",IC50,67.9 µM
"O=C(Nc1ccc(-c2[nH]ncc2C(F)(F)F)cc1)c1c(O)[nH]c(=O)[nH]c1=O [Formula (Im), 6-hydroxy-2,4-dioxo-N-(4-(4-(trifluoromethyl)-1H-pyrazol-5-yl)phenyl)-1,2,3,4-tetrahydropyrimidine-5-carboxamide]",IC50,25.2 µM
